Data as given in US12521414B2, “Method for preventing or treating urological chronic pelvic pain syndrome” (priority 2022, dated 2026).

Test system: Human urothelial T24 cells
Assay: WST-1 cell viability assay, 4-HC-induced loss of T24 viability
Assay type: cell-based
Conditions: 37.5 μM 4-HC for 4 h, WST-1 assay, n=3
Protocol: FIGS. 2A to 2D illustrate the CeNPs testing with human urothelial T24 cells in vitro. FIG. 2A illustrates that T24 cells were treated with 4-HC at concentrations of 0, 12.5, 25, 37.5, 50, 75, and 100 μM for 4 h (hours). Cell viability was examined utilizing the WST-1 assay (MK400, Takara, Mountain View, CA, USA).
FIG. 2B illustrates that 4-HC-induced loss of T24 viability was rescued by cerium oxide nanoparticle (CeNP) treatment (n=3). […] Fluorescence microscope images of the groups: (1) control group; (2) only 4-HC group: 37.5 μM 4-HC added for 4 h to induce cell oxidative stress; (3) CeNP treatment group: 5 μg/mL CeNPs were applied for 24 h before 4-h induction with 37.5 μM 4-HC; and (4) CeNP-only group: only 5 μg/mL CeNPs were applied for 24 h. […] Values are expressed as the mean±SD. Data were analyzed by one-way analysis of variance with Tukey's multiple comparisons test. *P<0.05, **P<0.01. n.s.: no statistical difference, (n=3).
Human urothelial T24 cells (#60062, BCRC, Taiwan) were cultured in 90% McCoy's 5a medium (Sigma, St. Louis, MO, USA) with 1.5 mM L-glutamine, 10% (v/v) fetal bovine serum, and 1% (v/v) PS. Cells were maintained at 37° C. in a humidified incubator containing 5% CO2 [6], and 4-HC was used to induce cellular oxidative stress. T24 cells were seeded into a 96-well plate at a density of 10^4 cells/well and incubated for 24 h until full adhesion was achieved. […]

SMILES: O=P1(N(CCCl)CCCl)NC(OO)CCO1 (stereo not shown) [4-HC, 4-hydroperoxycyclophosphamide]
- cell viability of T24 cells: approximately 50%
